# Measured values reported in patent US11970498B2, “CDK2 inhibitors” (BLUEPRINT MEDICINES CORPORATION, priority 2021, dated 2024).
# How the values were obtained:
# CDK1/Cyclin B1, GST-tag = biological target: T1, CDK1/Cyclin B1, GST-tag (Homo sapiens, UniProt P06493); assay: CDK1/Cyclin B1 biochemical phosphorylation assay (Caliper mobility shift); conditions: apparent IC50; 1.0 mM ATP or ATP Km; 1.5 nM enzyme; 25° C.
# T1 construct: GST
# Outline: (§1)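 Caliper electrophoretic separation of substrate and phosphopeptide gave apparent IC50s. Enzymes: CDK1/Cyclin B1 GST-tag 1.5 nM, CDK2/Cyclin E 1.25 nM; ATP 1.0 mM or at Km; 7.5 µM FL-peptide; pH 7.5 HEPES buffer, 1% DMSO; room temperature until 10–20% phosphorylated, then EDTA quench.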
# CDK2/Cyclin E = CDK2/Cyclin E (Homo sapiens, UniProt P24941); assay: CDK2/Cyclin E biochemical phosphorylation assay (Caliper mobility shift); conditions: apparent IC50; 1.0 mM ATP or ATP Km; 1.25 nM enzyme; 25° C.; read-out: CDK2/cyclin E1 IC50
# Outline: as §1
# T1 sequence (P06493 whole entry): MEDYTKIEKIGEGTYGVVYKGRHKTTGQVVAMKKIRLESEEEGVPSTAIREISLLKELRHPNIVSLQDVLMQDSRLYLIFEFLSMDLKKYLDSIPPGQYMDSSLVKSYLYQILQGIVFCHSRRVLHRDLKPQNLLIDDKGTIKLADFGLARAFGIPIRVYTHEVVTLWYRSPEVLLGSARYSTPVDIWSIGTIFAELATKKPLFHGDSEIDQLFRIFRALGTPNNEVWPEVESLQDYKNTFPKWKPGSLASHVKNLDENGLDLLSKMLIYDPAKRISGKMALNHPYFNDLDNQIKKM
# T1 sequence (P14635 whole entry partner): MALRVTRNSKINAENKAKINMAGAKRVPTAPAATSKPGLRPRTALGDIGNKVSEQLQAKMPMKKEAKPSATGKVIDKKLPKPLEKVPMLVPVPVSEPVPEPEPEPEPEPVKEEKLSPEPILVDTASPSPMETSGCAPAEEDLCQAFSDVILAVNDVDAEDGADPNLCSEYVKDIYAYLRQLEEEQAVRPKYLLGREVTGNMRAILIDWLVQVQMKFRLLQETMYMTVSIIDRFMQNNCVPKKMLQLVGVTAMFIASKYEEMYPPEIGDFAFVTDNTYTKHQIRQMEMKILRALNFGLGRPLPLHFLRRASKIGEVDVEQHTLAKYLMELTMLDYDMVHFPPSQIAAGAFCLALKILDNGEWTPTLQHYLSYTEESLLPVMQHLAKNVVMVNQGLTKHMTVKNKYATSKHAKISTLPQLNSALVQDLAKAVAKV
"IC50 (CDK1/Cyclin B1, GST-tag) [nM]",IC50 (CDK2/Cyclin E) [nM],Compound
≥ 500,30 to 100,"Cn1cncc1Cn1ncc2ncc(Nc3cc(OC(F)F)[nH]n3)nc21 [Example 131, N-(5-(difluoromethoxy)-1H-pyrazol-3-yl)-1-((1-methyl-1H-imidazol-5-yl)methyl)-1H-pyrazolo[3,4-b]pyrazin-6-amine]"
≥ 500,30 to 100,"C[C@H](CO)Cn1ncc2ncc(Nc3cc(OC(F)F)[nH]n3)nc21 [Example 199, (S)-3-(6-((5-(difluoromethoxy)-1H-pyrazol-3-yl)amino)-1H-pyrazolo[3,4-b]pyrazin-1-yl)-2-methylpropan-1-ol]"
≥ 500,10 to 20,"C[C@@H]([C@@H]1COCCO1)n1ncc2ncc(Nc3cc(OC(F)F)[nH]n3)nc21 (single isomer, unassigned) [Example 214]"
100 to 500,≤ 10,"C[C@@H](c1cccnc1F)n1nc(C#N)c2ncc(Nc3cc(OC(F)F)[nH]n3)nc21 [Example 63, (S)-6-((5-(difluoromethoxy)-1H-pyrazol-3-yl)amino)-1-(1-(2-fluoropyridin-3-yl)ethyl)-1H-pyrazolo[3,4-b]pyrazine-3-carbonitrile]"
≥ 500,10 to 20,"Fc1ccc(Cn2ncc3ncc(Nc4cc(OC(F)F)[nH]n4)nc32)cc1 [Example 40, N-(5-(difluoromethoxy)-1H-pyrazol-3-yl)-1-(4-fluorobenzyl)-1H-pyrazolo[3,4-b]pyrazin-6-amine]"
≥ 500,≤ 10,"C[C@@H](c1ccccn1)n1ncc2ncc(Nc3cc(OC(F)F)[nH]n3)nc21 [Example 4, (S)—N-(5-(difluoromethoxy)-1H-pyrazol-3-yl)-1-(1-(pyridin-2-yl)ethyl)-1H-pyrazolo[3,4-b]pyrazin-6-amine]"
≥ 500,≤ 10,"FC(F)Oc1cc(Nc2cnc3cnn(C[C@H]4COCCO4)c3n2)n[nH]1 [Example 86, (S)-1-((1,4-dioxan-2-yl)methyl)-N-(5-(difluoromethoxy)-1H-pyrazol-3-yl)-1H-pyrazolo[3,4-b]pyrazin-6-amine]"
≥ 500,20 to 30,"FC(F)Oc1cc(Nc2cnc3cnn([C@H](c4ccccn4)C4CC4)c3n2)n[nH]1 [Example 102, (S)-1-(cyclopropyl(pyridin-2-yl)methyl)-N-(5-(difluoromethoxy)-1H-pyrazol-3-yl)-1H-pyrazolo[3,4-b]pyrazin-6-amine]"
≥ 500,30 to 100,"C[C@@H]([C@H]1CCCOC1)n1ncc2ncc(Nc3cc(OC(F)F)[nH]n3)nc21 (single isomer, unassigned) [Example 217]"
≥ 500,20 to 30,"C[C@@H](c1ccc(F)nc1)n1ncc2ncc(Nc3cc(OC(F)F)[nH]n3)nc21 (single isomer, unassigned) [Example 152, (R)-N-(5-(difluoromethoxy)-1H-pyrazol-3-yl)-1-(1-(6-fluoropyridin-3-yl)ethyl)-1H-pyrazolo[3,4-b]pyrazin-6-amine or (S)-N-(5-(difluoromethoxy)-1H-pyrazol-3-yl)-1-(1-(6-fluoropyridin-3-yl)ethyl)-1H-pyrazolo[3,4-b]pyrazin-6-amine]"
≥ 500,30 to 100,"C[C@@H]([C@@H]1COCCO1)n1ncc2ncc(Nc3cc(OC(F)F)[nH]n3)nc21 (single isomer, unassigned) [Example 211]"
≥ 500,30 to 100,"FC(F)Oc1cc(Nc2cnc3cnn(CC4(C(F)(F)F)CCOCC4)c3n2)n[nH]1 [Example 121, N-(5-(difluoromethoxy)-1H-pyrazol-3-yl)-1-((4-(trifluoromethyl)tetrahydro-2H-pyran-4-yl)methyl)-1H-pyrazolo[3,4-b]pyrazin-6-amine]"
≥ 500,≤ 10,"C[C@@H](c1cncs1)n1ncc2ncc(Nc3cc(OC(F)F)[nH]n3)nc21 [Example 58, (S)-N-(5-(difluoromethoxy)-1H-pyrazol-3-yl)-1-(1-(thiazol-5-yl)ethyl)-1H-pyrazolo[3,4-b]pyrazin-6-amine]"
≥ 500,30 to 100,"Cc1ccncc1Cn1ncc2ncc(Nc3cc(OC(F)F)[nH]n3)nc21 [Example 96, N-(5-(difluoromethoxy)-1H-pyrazol-3-yl)-1-((4-methylpyridin-3-yl)methyl)-1H-pyrazolo[3,4-b]pyrazin-6-amine]"
≥ 500,20 to 30,"O[C@H]1C[C@H](n2ncc3ncc(Nc4cc(OC(F)F)[nH]n4)nc32)C1 (single isomer, unassigned) [Example 146, (1s,3s)-3-(6-((5-(difluoromethoxy)-1H-pyrazol-3-yl)amino)-1H-pyrazolo[3,4-b]pyrazin-1-yl)cyclobutan-1-ol or (1r,3r)-3-(6-((5-(difluoromethoxy)-1H-pyrazol-3-yl)amino)-1H-pyrazolo[3,4-b]pyrazin-1-yl)cyclobutan-1-ol]"
≥ 500,20 to 30,"FC(F)Oc1cc(Nc2cnc3cnn(Cc4cnccn4)c3n2)n[nH]1 [Example 223, N-(5-(difluoromethoxy)-1H-pyrazol-3-yl)-1-(pyrazin-2-ylmethyl)-1H-pyrazolo[3,4-b]pyrazin-6-amine]"
≥ 500,30 to 100,"FC(F)Oc1cc(Nc2cnc3cnn([C@H](c4ccccn4)C(F)F)c3n2)n[nH]1 (single isomer, unassigned) [Example 149, (R)-1-(2,2-difluoro-1-(pyridin-2-yl)ethyl)-N-(5-(difluoromethoxy)-1H-pyrazol-3-yl)-1H-pyrazolo[3,4-b]pyrazin-6-amine or (S)-1-(2,2-difluoro-1-(pyridin-2-yl)ethyl)-N-(5-(difluoromethoxy)-1H-pyrazol-3-yl)-1H-pyrazolo[3,4-b]pyrazin-6-amine]"
≥ 500,≤ 10,"FC(F)Oc1cc(Nc2cnc3cnn(C[C@@H]4[C@@H]5COC[C@@H]54)c3n2)n[nH]1 [Example 111, 1-(((1R,5S,6r)-3-oxabicyclo[3.1.0]hexan-6-yl)methyl)-N-(5-(difluoromethoxy)-1H-pyrazol-3-yl)-1H-pyrazolo[3,4-b]pyrazin-6-amine]"
≥ 500,≤ 10,"COc1cc(Nc2cnc3cnn([C@@H](C)c4cccnc4)c3n2)n[nH]1 [Example 67, (S)-N-(5-methoxy-1H-pyrazol-3-yl)-1-(1-(pyridin-3-yl)ethyl)-1H-pyrazolo[3,4-b]pyrazin-6-amine]"
100 to 500,≤ 10,"FC(F)Oc1cc(Nc2cnc3cnn(CC45CCC(CC4)OC5)c3n2)n[nH]1 [Example 118, 1-((2-oxabicyclo[2.2.2]octan-4-yl)methyl)-N-(5-(difluoromethoxy)-1H-pyrazol-3-yl)-1H-pyrazolo[3,4-b]pyrazin-6-amine]"

Compound,"IC50 (CDK1/Cyclin B1, GST-tag) [nM]",IC50 (CDK2/Cyclin E) [nM]
"FC[C@@H](c1cccnc1)n1ncc2ncc(Nc3cc(OC(F)F)[nH]n3)nc21 (single isomer, unassigned) [Example 19, (R)—N-(5-(difluoromethoxy)-1H-pyrazol-3-yl)-1-(2-fluoro-1-(pyridin-3-yl)ethyl)-1H-pyrazolo[3,4-b]pyrazin-6-amine or (S)—N-(5-(difluoromethoxy)-1H-pyrazol-3-yl)-1-(2-fluoro-1-(pyridin-3-yl)ethyl)-1H-pyrazolo[3,4-b]pyrazin-6-amine]",100 to 500,≤ 10
"C[C@H]([C@H]1CCOC1)n1ncc2ncc(Nc3cc(OC(F)F)[nH]n3)nc21 (single isomer, unassigned) [Example 10]",< 100,≤ 10
"FC[C@H](c1ccccc1)n1ncc2ncc(Nc3cc(OC(F)F)[nH]n3)nc21 (single isomer, unassigned) [Example 90, (S)-N-(5-(difluoromethoxy)-1H-pyrazol-3-yl)-1-(2-fluoro-1-phenylethyl)-1H-pyrazolo[3,4-b]pyrazin-6-amine or (R)-N-(5-(difluoromethoxy)-1H-pyrazol-3-yl)-1-(2-fluoro-1-phenylethyl)-1H-pyrazolo[3,4-b]pyrazin-6-amine]",≥ 500,30 to 100
"FC[C@@H](c1ccccc1)n1ncc2ncc(Nc3cc(OC(F)F)[nH]n3)nc21 (single isomer, unassigned) [Example 89, (R)-N-(5-(difluoromethoxy)-1H-pyrazol-3-yl)-1-(2-fluoro-1-phenylethyl)-1H-pyrazolo[3,4-b]pyrazin-6-amine or (S)-N-(5-(difluoromethoxy)-1H-pyrazol-3-yl)-1-(2-fluoro-1-phenylethyl)-1H-pyrazolo[3,4-b]pyrazin-6-amine]",≥ 500,≤ 10
"C[C@H](c1cccnn1)n1ncc2ncc(Nc3cc(OC(F)F)[nH]n3)nc21 (single isomer, unassigned) [Example 25, (R)—N-(5-(difluoromethoxy)-1H-pyrazol-3-yl)-1-(1-(pyridazin-3-yl)ethyl)-1H-pyrazolo[3,4-b]pyrazin-6-amine or (S)—N-(5-(difluoromethoxy)-1H-pyrazol-3-yl)-1-(1-(pyridazin-3-yl)ethyl)-1H-pyrazolo[3,4-b]pyrazin-6-amine]",≥ 500,30 to 100
"FC[C@@H](c1ccccn1)n1ncc2ncc(Nc3cc(OC(F)F)[nH]n3)nc21 (single isomer, unassigned) [Example 15, (R)—N-(5-(difluoromethoxy)-1H-pyrazol-3-yl)-1-(2-fluoro-1-(pyridin-2-yl)ethyl)-1H-pyrazolo[3,4-b]pyrazin-6-amine or (S)—N-(5-(difluoromethoxy)-1H-pyrazol-3-yl)-1-(2-fluoro-1-(pyridin-2-yl)ethyl)-1H-pyrazolo[3,4-b]pyrazin-6-amine]",≥ 500,30 to 100
